Test results taken from patent publication US20240207282A1, “METHOD OF INCREASING CHAPERONE MEDIATED AUTOPHAGY BY STABILIZING THE INTERACTION OF RETINOIC ACID RECEPTOR-ALPHA AND AN INHIBITOR” (ALBERT EINSTEIN COLLEGE OF MEDICINE, priority 2021, published 2024).

Tests used:
rd10 mice = test: rd10 mouse retinal degeneration, systemic (i.p.) administration; format: in vivo
Source text: Animals: C57BL/6J mice wild-type (WT) and homozygous for the Pde6 mutation (rd10 mouse model of retinal degeneration) were obtained from The Jackson Laboratory. C57BL/6 KFERQ-Dendra mice were generated by back-crossing FVB KFERQ-Dendra mice with wild-type C57BL/6 mice for 8 generations. Both male and female animals were used in this study in equal distribution groups. However, results from both sexes were pooled, because of absence of significant differences in any of the parameters analyzed after statistical analysis with a mixed model of two-way ANOVA sex and treatment as independent variables and the corresponding measure as dependent variable. All animals were housed in a barrier-controlled facility (19-23° C. 30-60% relative humidity; 12-h light/dark cycle) with ad libitum access to standard chow pellets and water. For animal administration of CA compounds, a formula containing 30% PEG 400, 65% glucose solution (5%), 5% Tween 80 was used to dissolve them. CA compounds were prepared freshly by adding 5% DMSO and sonicating for 1 h. Treatment of KFERQ-Dendra mice with the CA compounds was done by i.p. daily injection of 30 mg/kg bw or vehicle for three consecutive days and tissues collected 6 h after the last injection. In the case of rd10 mice, animals were daily injected from P18 to P25 with CA77 (40 mg/kg bw). At P26, mice were sacrificed, and eyes fixed overnight with 4% PFA in PBS at 4° C. for immunofluorescence or retinas dissected and immediately frozen for biochemistry. Distribution of animals in the vehicle or treatment group was done randomly. All animal studies and procedures complied with ethical regulations, were performed in accordance with the European Union guidelines and the ARVO Statement for the Use of Animals in Ophthalmic and Vision Research and were approved by the Institutional Animal Care and Use Committee at the Albert Einstein College of Medicine, the CSIC Bioetica Comite and approved by the Comunidad de Madrid, PROEX232/17.
Cryosections and immunofluorescence: Cryosections and immunofluorescence in retinal sections were performed as previously described 10. Primary antibodies used in this study were Transducin (Santacruz Biotechnologies) and Opsin R/G (Millipore). Sections were visualized by confocal microscopy (TCS SP5; Leica Microsystems).
ONL thickness and outer segment length quantification: For ONL thickness quantification, DAPI images were taken at 40× in a fluorescence microscope Multidimensional system Leica AF6000 LX coupled to DMI600B microscope and Hamamatsu CCD 9100-02 camera. At least two sections per animal were analyzed, preferably central sections. Eight images per retina equally distributed along the retina were acquired. Three measures were taken per image and ratio ONL/INL quantified with ImageJ tools. Leica LAS-X was used for image acquisition and ImageJ (v.2.1.0) was used for image processing. For OS length measures, fixed positions common to all pictures were considered and OS length was measured using ImageJ straight line tool.
Mice were dark adapted overnight, and subsequent manipulations were performed in dim red light. Mice were anesthetized with intraperitoneal injections of ketamine (95 mg/kg) and xylazine (5 mg/kg) solution and maintained on a heating pad at 37° C. Pupils were dilated with a drop of 1% tropicamide (Colircusi Tropicamida; Alcon Cusi). To optimize electrical recording, a topical drop (2% Methocel; Hetlingen) was instilled on each eye immediately before situating the corneal electrode. Flash-induced ERG responses were recorded from the right eye in response to light stimuli produced with a Ganzfeld stimulator. Light intensity was measured with a photometer at the level of the eye (Mavo Monitor USB; Nürenberg). Four to 64 consecutive stimuli were averaged with an interval between light flashes in scotopic conditions of 10 s for dim flashes and of up to 60 s for the highest intensity. Under photopic conditions, the interval between light flashes was fixed at 1 s. […]

[1] = Bidirectional permeability assay with CaCo-2 cells; format: in vitro ADME
Protocol: In vitro solubility in the following conditions A) HBSS/HEPES 10 mM/BSA 0.1% pH 6 B) HBSS/HEPES 10 mM/BSA 0.1% pH 7.4 C) TRIS/BSA 0.1% PBS (pH 7.4 and at indicated doses were measured by Nephelometry using the NEPHELOstar Galaxy apparatus (BMG Lab Technologies). In vitro stability in human, mouse and rat liver microsomes and permeability using a bidirectional permeability assay with CaCo-2 cells (pH 6.5/7.4) assays were performed with standard methodology and analyzed by LC-MS/MS. at SIMM-SERVIER joint Biopharmacy Laboratory. In silico ADME properties calculated by QikProp (Schrodinger, LLC) analysis and ADME predictions for CA39 (left) and CA77 (right).

[2] = daily i.p. 40 mg/kg bw, p18 to p25

CC(=O)Nc1ccc(C2=Nc3ccc(Cl)cc3OC2)cc1 [CA77]
electroretinogram wave amplitude (rd10 mice; ERG at P33): significantly higher amplitude of their b-mixed, b-phot and flicker waves | other light responses (ERG) (rd10 mice; ERG at P33): No significant differences | NCoR1 expression levels (rd10 mice; WT and rd10 mice, daily i.p. 40 mg/kg bw): did not change the expression levels of NCoR1 | mRNA levels of photoreceptor-specific proteins (rhodopsin) (rd10 mice; [2]): Higher mRNA levels of photoreceptor-specific proteins | outer nuclear layer (ONL) thickness (rd10 mice; [2]): significantly thicker outer nuclear layers | retinal GFAP levels (rd10 mice; [2]): strikingly lower levels of GFAP | retinal L2A levels (immunoblot) (rd10 mice; [2]): significantly increasing retinal levels of the limiting CMA component | length of outer segments of photoreceptors (rd10 mice; daily i.p. 40 mg/kg bw, p18 to p25, vs vehicle): increased length of the outer segments of photoreceptors | membrane permeability [1]: highly membrane permeable
